Entries after “also recorded” stand apart in the source; their conditions may differ.
Tests used:
[1] = target: T1, UGT1A6 (Homo sapiens, UniProt P19224); experiment: Inhibition of UGT1A6-catalyzed N-acetylserotonin β-D-glucuronidation in ultrapooled human liver microsomes; assay type: in vitro ADME
T1 construct: ultrapooled human liver microsomes (0.2 mg/mL); from tissue; host or cells: human liver microsomes (ultrapooled)
Protocol: (§1) The inhibitory potential of mertansine on UGT1A1, UGT1A3, UGT1A4, UGT1A6, UGT1A9, and UGT2B7 activities was evaluated using liquid chromatography–tandem mass spectrometry (LC-MS/MS) with a cocktail of UGT substrates and ultrapooled human liver microsomes. Each incubation mixture was prepared to a final volume of 100 μL as follows: ultrapooled human liver microsomes (0.2 mg/mL), 5 mM UDPGA, 10 mM magnesium chloride, alamethicin (25 μg/mL), 50 mM Tris buffer (pH 7.4), various concentrations of mertansine in methanol (final concentrations of 0.01–50 μM), and the cocktail sets of UGT enzyme-specific substrates. Two cocktail sets were used: set A contained 0.5 μM SN-38 for UGT1A1, 2 μM chenodeoxycholic acid for UGT1A3, and 0.5 μM trifluoperazine for UGT1A4; and set B contained 1 μM N-acetylserotonin for UGT1A6, 0.2 μM mycophenolic acid for UGT1A9, and 1 μM naloxone for UGT2B7. The reactions were initiated by adding UDPGA and incubated in a shaking water bath for 60 min at 37 °C. Reactions were terminated by adding 50 μL of ice-cold acetonitrile containing internal standards (IS, propofol glucuronide for set A and meloxicam for set B). Incubation mixtures were centrifuged at 13,000 g for 8 min at 4 °C. Next, 50 μL of each supernatant of sets A and B was mixed, and aliquots (5 μL) were analyzed using LC-MS/MS. […]

[2] = target: T2, UGT1A9 (Homo sapiens, UniProt O60656); experiment: Inhibition of UGT1A9-catalyzed mycophenolic acid β-D-glucuronidation in ultrapooled human liver microsomes; assay type: in vitro ADME
T2 construct: ultrapooled human liver microsomes (0.2 mg/mL); from tissue; host or cells: human liver microsomes (ultrapooled)
Protocol: as §1

[3] = system: CYP1A2 mRNA (suppression of expression); experiment: CYP1A2 mRNA level in human hepatocytes after 48 h treatment (RT-PCR); assay type: cell-based; conditions: 1.25–2500 nM
From the text: 12.5 (Systat Software, Inc.; San Jose, CA, USA). […] 1.1 (Systat Software, Inc.).

[4] = MTS colorimetric cytotoxicity assay in human hepatocytes; assay type: cell-based; conditions: human hepatocytes (lot 319), 48 h mertansine treatment (1.25–6250 nM), lot 319, MTS
Protocol: The hepatocytes were incubated with 0.0125, 0.0625, 0.125, 0.250, 0.625, 1.25, 2.5, and 6.25 μM mertansine in triplicate for 48 h at 37 °C in 5% CO2. The medium was exchanged with fresh medium containing mertansine every 24 h. Then, 20 μL of MTS solution was added to each well and the plate was incubated for 1 h at 37 °C in 5% CO2. The absorbance of the reaction mixture was measured at 492 nm.

[5] = system: CYP2D6; parameters: method as in PMID 25048520, PMID 22752008; conditions: human liver microsomes, competitive; read-out: Ki, CYP2D6-mediated dextromethorphan O-demethylation; cited from earlier work
[6] = system: recombinant human CYP3A4; parameters: method as in PMID 25048520, PMID 22752008; conditions: cited from earlier work
[7] = rats, intravenous [3H]-mertansine 0.2 mg/kg, cited from earlier work
[8] = system: CYP2C8 mRNA; experiment: CYP2C8 mRNA level in human hepatocytes after 48 h treatment (RT-PCR); conditions: plated cryopreserved human hepatocytes, IC50, suppression of CYP2C8 mRNA expression, 1.25–2500 nM
[9] = system: CYP2C19 mRNA; experiment: CYP2C19 mRNA level in human hepatocytes after 48 h treatment (RT-PCR); conditions: plated cryopreserved human hepatocytes, IC50, suppression of CYP2C19 mRNA expression, 1.25–2500 nM
[10] = human liver microsomes, mertansine at 50 µM
[11] = Mean ± SD of three human hepatocyte lots, 48 h
[12] = human hepatocytes Lot 319, 48 h
[13] = human hepatocytes Lot 321, 48 h
[14] = human hepatocytes Lot 361, 48 h

T1 sequence (P19224 27-532): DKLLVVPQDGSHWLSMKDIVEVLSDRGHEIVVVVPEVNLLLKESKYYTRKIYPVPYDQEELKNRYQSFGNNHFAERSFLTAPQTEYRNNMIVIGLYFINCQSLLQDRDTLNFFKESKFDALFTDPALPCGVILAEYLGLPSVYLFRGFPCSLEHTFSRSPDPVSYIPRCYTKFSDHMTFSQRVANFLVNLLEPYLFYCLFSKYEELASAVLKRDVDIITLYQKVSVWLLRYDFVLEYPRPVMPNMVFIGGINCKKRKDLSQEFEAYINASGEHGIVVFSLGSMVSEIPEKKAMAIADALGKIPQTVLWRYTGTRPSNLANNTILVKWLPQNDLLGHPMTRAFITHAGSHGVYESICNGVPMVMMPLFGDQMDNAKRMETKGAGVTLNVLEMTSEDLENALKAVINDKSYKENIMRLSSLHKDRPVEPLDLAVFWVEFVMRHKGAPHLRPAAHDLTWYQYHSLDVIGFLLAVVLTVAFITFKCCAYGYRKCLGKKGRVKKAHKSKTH
T2 sequence (O60656 26-530): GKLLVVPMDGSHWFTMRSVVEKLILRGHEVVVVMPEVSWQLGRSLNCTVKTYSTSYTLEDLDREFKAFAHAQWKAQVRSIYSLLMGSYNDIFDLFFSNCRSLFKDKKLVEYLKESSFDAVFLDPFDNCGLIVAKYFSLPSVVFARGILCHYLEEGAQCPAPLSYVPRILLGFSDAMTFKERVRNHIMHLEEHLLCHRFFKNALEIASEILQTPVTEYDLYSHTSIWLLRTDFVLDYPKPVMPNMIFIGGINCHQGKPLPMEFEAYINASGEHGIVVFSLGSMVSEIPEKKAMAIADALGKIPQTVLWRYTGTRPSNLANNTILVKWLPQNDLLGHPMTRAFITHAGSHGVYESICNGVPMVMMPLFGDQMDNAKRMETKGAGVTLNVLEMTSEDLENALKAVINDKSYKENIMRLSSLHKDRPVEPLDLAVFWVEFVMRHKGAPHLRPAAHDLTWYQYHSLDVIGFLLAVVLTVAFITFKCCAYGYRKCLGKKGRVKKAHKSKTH

For `COc1cc2cc(c1Cl)N(C)C(=O)CC(OC(=O)C(C)N(C)C(=O)CCS)C1(C)OC1C(C)C1CC(O)(NC(=O)O1)C(OC)C=CC=C(C)C2` (centres unmarked) [mertansine, Mertansine], the “Inhibition of UGT1A6 enzyme activity” value [1, 10] was “no inhibition; also recorded: negligibly inhibited”, the “IC50, N-acetylserotonin β-D-glucuronidation (UGT1A6)” value ([1]; ultrapooled human liver microsomes, 1 µM N-acetylserotonin (cocktail)) was “No inhibition” and the “Inhibition of UGT1A9 enzyme activity” value [2, 10] was “no inhibition; also recorded: negligibly inhibited”. The “IC50, mycophenolic acid β-D-glucuronidation (UGT1A9)” value ([2]; ultrapooled human liver microsomes, 0.2 µM mycophenolic acid (cocktail)) was “No inhibition”, the IC50 at 48 h [3, 11] was 93.7 ± 109 nM and the IC50 at 48 h [3, 12] was 220 nM. The IC50 at 48 h [3, 13] was 34.3 nM, the IC50 at 48 h [3, 14] was 27.3 nM and the viability at 48 h [4] was greater than 96.2%. For the same compound, the Ki [5] was 14000 nM, the KI (inactivation) ([6]; recombinant human CYP3A4, irreversible inhibition, read-out: Ki, inactivation of midazolam 1′-hydroxylation) was 3400 nM and the “kinact, inactivation of midazolam 1′-hydroxylation” value ([6]; recombinant human CYP3A4) was 0.058 min⁻¹. For the same compound, the Tissue-to-blood radioactivity ratios ([7]; highly perfused organs, for 24 h) was 1~11, the “Biliary excretion of dosed radioactivity” value ([7]; over 72 h) was ~ 46% and the “Dosed radioactivity recovered in urine” value ([7]; over 120 h) was 5%. The IC50 at 48 h [8, 11] was 32.1 ± 14.9 nM, the IC50 at 48 h [8, 12] was 48.7 nM and the IC50 at 48 h [8, 13] was 20 nM. For the same compound, the IC50 at 48 h [8, 14] was 27.5 nM, the IC50 at 48 h [9, 11] was 540 ± 233 nM and the IC50 at 48 h [9, 12] was 574 nM. It also gave an IC50 at 48 h [9, 13] of 754 nM and an IC50 at 48 h [9, 14] of 291 nM.

Reference: article PMC7150891, “Mertansine Inhibits mRNA Expression and Enzyme Activities of Cytochrome P450s and Uridine 5′-Diphospho-Glucuronosyltransferases in Human Hepatocytes and Liver Microsomes” (Pharmaceutics, 2020)
